According to PMC6222871, “Suppression of Hepatitis C Virus Genome Replication and Particle Production by a Novel Diacylglycerol Acyltransferases Inhibitor” (Molecules : A Journal of Synthetic Chemistry and Natural …, 2018):
Read-outs that look alike come from different tables or passages of the source.

Tests used:
JFH1-NS5A-GFP cells = test: NS5A-GFP and Oil Red O imaging in JFH1-NS5A-GFP cells; assay type: cell-based, hepatitis C virus; settings: 72 h, dose-dependent
Protocol: Based on previous results, we noticed that EC50 values required for inhibition of the HCV genome replication by 10j were around 1–2 μM ranges (Figure 2 and Table 3). However, IC50 value required for inhibition of the enzymatic DGAT activities in vitro by 10j was reported to be higher than 5 μM (Table 2 and Figure 6E). Based on these observations, we hypothesized that inhibition of DGATs by 10j may not play a direct role in suppression of the viral genome replication. To test this hypothesis, we decided to study effects of 10j on DGAT and the viral genome replication in a simultaneous manner. […] Then, the viral NS3 protein and LDs were visualized by using an anti-NS3 antibody and BODIPY, respectively. […] Significant reduction of LD was only seen after treatment of 10j higher than 5 μM. In order to confirm this observation, we decided to utilize another HCV-positive cell—JFH1-NS5A-GFP cells—which were infected with infectious HCV genotype 2a particles with a visually tractable NS5A due to the presence of in-frame-fused GFP protein with NS5A. TGs of these cells were stained with ORO for visualization in parallel. […]
Immunofluorescence analysis of Huh7.5-J6/JFH1 or Huh7.5-JFH1-5A-GFP cells in the presence of 10j was conducted as previously described. Fluorescence were examined and captured by Nikon confocal laser scanning microscopic system. LD content was quantified using the ImageJ program.

Huh7.5-J6/JFH1 cells [1] = test: FACS analysis of LD-positive (BODIPY) J6/JFH1 cells; assay type: cell-based; settings: 8 μM, 72 h, with BODIPY; DMSO 78.2%
Protocol: Huh7.5-J6/JFH1 cells were plated onto a 10 cc plate (Corning) and supplemented with either DMSO or 8 μM of 10j for 72 h. Then, Huh7.5-J6/JFH1 cells were fixed by using 4% paraformaldehyde for 10 min and permeabilized using 0.1% saponin in PBS for 20 min. Huh7.5-J6/JFH1 cells were stained with 0.001% BODIPY 493/503 D3922 (Invitrogen) in saponin for 1 h at 4 °C. The FACSAriaIII (BD Biosciences, Franklin Lakes, NJ, USA) was used for the flow cytometric analysis as previously described.

Huh7.5-J6/JFH1 cells [2] = test: immunofluorescence of dsRNA (J2 antibody) and LD (Oil-Red-O) in Huh7.5-J6/JFH1 cells; assay type: cell-based, hepatitis C virus; settings: increasing concentrations, 72 h
Protocol: They were treated with a series of increasing concentrations of 10j for 72 h. […] Since double-stranded (ds) RNAs were regarded as a genuine marker for endogenous viral RNA synthesis due to their roles as intermediates during viral RNA replication, we wished to test effect of 10j on expression and localization of the viral dsRNAs. For this purpose, Huh7.5-J6/JFH1 cells were treated with a series of increasing concentrations of 10j for 72 h. Then, dsRNAs were visualized by using a dsRNA-specific J2 antibody. […] To study effects of 10j on localization of LDs in parallel, LDs were also co-stained in an Oil-Red-O (ORO) dye.
Immunofluorescence analysis of Huh7.5-J6/JFH1 or Huh7.5-JFH1-5A-GFP cells in the presence of 10j was conducted as previously described [35]. Fluorescence were examined and captured by Nikon confocal laser scanning microscopic system. LD content was quantified using the ImageJ program.

[3] = system: HCV genotype 2a (Huh7.5-J6/JFH1); test: HCV particle production: infectivity of supernatant on naive Huh7.5 cells by real-time RT-PCR; assay type: cell-based, hepatitis C virus; settings: for effect on HCV particle production: 10 μM; for EC50: Hepatitis C virus, read-out: EC50 on HCV particle production
Protocol: A922500, a commercially available DGAT-1-specific inhibitor was used as a positive control [10]. […] Therefore, we decided to examine effects of these twelve DGAT inhibitors on HCV particle production as well as RNA genome replication in parallel. For this purpose, we transfected Huh7.5 cells with in vitro-transcribed genotype 2a HCV RNAs (Huh7.5-J6/JFH1) [16] and treated them with each DGAT inhibitor for 6 and 72 h at 10 μM. HCV genome replication as well as host GAPDH RNA levels was quantitated by a real-time RT-PCR analysis. For assessment of HCV particle production, we harvested and filtered the supernatant from Huh7.5-J6/JFH1 cells treated with DGAT inhibitors and incubated the supernatant with naïve huh7.5 cells for 72 h. Then, infectivity was measured by a real-time RT-PCR analysis.
Huh7.5-J6/JFH-1 cells were seeded into 6-well plates at a density of 3 × 10^5 cells per well with DMEM containing 10% FBS. […] Total RNAs were extracted from treated cells and virus-containing media were harvested at each time point. Naïve Huh7.5 cells were infected with these virus-containing media after concentration with centricons.

miR122 = miR122 RT-PCR in Huh7.5-J6/JFH1 cells; assay type: cell-based; settings: up to 8 μM, 72 h
Source text: Since DGATs play an important role in maintaining liver-likeness in hepatocytes, the antiviral effect of 10j might be due to mere loss of this liver-specific character. […] In addition, HNF4α was also reported to be reduced in DGAT1-silenced cell lines. Therefore, we wished to test effects of 10j on HNF4α.

HCV IRES = test: HCV IRES-dependent translation, dual luciferase reporter in Huh7.5 cells; assay type: cell-based, hepatitis C virus; settings: up to 10 μM
Protocol: A dual luciferase reporter plasmid, which expresses firefly and renila luciferases through cap and HCV IRES-dependent translation, was transfected into Huh7.5 cells in the presence of 10j. Dual luciferase assay was conducted as previously described.

[4] = system: HCV NS3 (Huh7.5-J6/JFH1, genotype 2a); test: western blot of HCV NS3 protein in Huh7.5-J6/JFH1 cells
Protocol: Due to the tight coupling of viral genome replication to its protein expression, inhibition of viral RNA genome replication leads to a subsequent reduction of viral protein expression.
(A) Dose-dependent western blot analysis of Huh7.5-J6/JFH1 cells treated with increasing concentrations of 10j for 72 h by measuring protein expression levels of HCV NS3 relative to the β-actin. Daclatasvir, an NS5A inhibitor was used as a positive control. (B) Time-dependent western blot analysis of J6/JFH1 RNA-transfected Huh7.5 cells treated with 8 μM of 10j for increasing periods of time analyzed by measuring protein expression levels of HCV NS3 relative to the β-actin. (C,D) Same experiments were performed as in (A,B) to study effects of 10j on the expression levels of the NS5A protein of Huh7.5-Bart79I cells in a dose- as well as time-dependent manners.
Western blot analysis of Huh7.5-J6/JFH1 or Bart79I cells treated with 10j was conducted as previously described. Relative amounts of HNF4α proteins were quantified by using an HNF4α mouse monoclonal antibody (M04), clone 4E2 (Abnova) with the dilution of 1:1000.

recombinant DGAT-2 = system: recombinant DGAT-2; parameters: method as in PMID 23242135; settings: cited from earlier work

For O=C(NCc1ccco1)c1ccc2[nH]c(COc3ccc(C45CC6CC(CC(C6)C4)C5)cc3)nc2c1 [10j, 2-{[4-(adamant-1yl)phenoxy]methyl)-N-(furan-2-ylmethyl)-1H-benzo[d]imidazole-5-carboxamide], the “concentration at which reduction of NS5A-GFP expression starts” value (JFH1-NS5A-GFP cells) was 5 µM, the “relative number of LD-positive J6/JFH1 cells” value (Huh7.5-J6/JFH1 cells [1]) was 38.6% and the “amount of dsRNAs” value (Huh7.5-J6/JFH1 cells [2]) was “significantly reduced”. For the same compound, the “expression level of total LDs (Oil-Red-O)” value (Huh7.5-J6/JFH1 cells [2]) was “dose-dependent reduction”, the “effect on HCV particle production” value ([3]; 6 h (Figure 1B)) was “able to block HCV particle production” and the “effect on HCV particle production” value ([3]; 72 h (Figure 1D)) was “able to block both viral RNA genome replication and particle production”. It also gave an EC50 ([3]; Huh7.5, 3 h) of 1000 nM, an EC50 ([3]; Huh7.5, 6 h) of 1700 nM and an EC50 ([3]; Huh7.5, 12 h) of 400 nM. It also gave an EC50 ([3]; Huh7.5, 24 h) of 400 nM, an EC50 ([3]; Huh7.5, 48 h) of 700 nM and an EC50 ([3]; Huh7.5, 72 h) of 200 nM. The “expression levels of miR122” value (miR122) was “increased levels of miR122”, the “HCV IRES-dependent translation” value (HCV IRES) was “remained unaltered” and the EC50 ([4]; Hepatitis C virus, GETYPE2A, 72 h, read-out: concentration required for reducing 50% of HCV protein expression (EC50)) was 3600 nM. For the same compound, the “time required for reducing 50% of HCV protein expression (T1/2)” value ([4]; genotype 2a, 10 μM of 10j, 8 μM (figure legend)) was 37.8 h and the IC50 (recombinant DGAT-2) was 17300 nM.
